# Test results taken from patent EP0723956B1, “Basically substituted benzoylguanidines, process for their preparation, their use as medicaments or diagnostics as well as medicaments containing them” (HOECHST AKTIENGESELLSCHAFT, priority 1995, dated 1996).
# Tested on: not listed separately
# Assay: Water solubility
# Assay type: physicochemical
# Details: Dihydrochlorid, pH = 5.3, read-out: Wasserlöslichkeit
row,Compound,solubility [mg/mL]
1,"CN(C)CCc1ccc(Oc2ccc(C(=O)N=C(N)N)cc2C(F)(F)F)cc1 [Beispiel 21, 3-Trifluormethyl-4-[4-(2-dimethylaminoethyl)phenoxy]benzoyl-guanidin]",49

# Biological target: T1, Na^+/H^+-Exchangers von Kaninchenerythrocyten (Oryctolagus cuniculus, UniProt P23791)
# T1 construct: den Na^+-Influx in die Erythrocyten via Na^+/H^+-Austausch flammenphotometrisch bestimmen zu können; endogenous in cells; host or cells: erythrocytes in whole blood from the ear arteries of New Zealand White rabbits
# Assay: Inhibition of the Na+/H+ exchanger of rabbit erythrocytes (amiloride-sensitive Na+ influx, flame photometry)
# Assay type: cell-based, Kaninchen
# Details: Inhibition des Na^+/H^+-Exchangers; erythrocytes of cholesterol-fed rabbits, hyperosmolar salt-sucrose medium, pH 7,4, 37°C
# Description: Inhibition des Na^+/H^+-Exchangers von Kaninchenerythrocyten
# Weiße Neuseeland-Kaninchen (Ivanovas) erhielten eine Standard-Diät mit 2 % Cholesterin für sechs Wochen, um den Na^+/H^+-Austausch zu aktivieren und so den Na^+-Influx in die Erythrocyten via Na^+/H^+-Austausch flammenphotometrisch bestimmen zu können. Das Blut wurde den Ohrarterien entnommen und durch 25 IE Kalium-Heparin ungerinnbar gemacht. Ein Teil jeder Probe wurde zur Doppelbestimmung des Hämatokrits durch Zentrifugieren benutzt. Aliquots von jeweils 100 µl dienten zur Messung des Na^+-Ausgangsgehalts der Erythrocyten.
# Um den Amilorid-sensitiven Natrium-lnflux zu bestimmen, wurden 100 µl jeder Blutprobe in jeweils 5 ml eines hyperosmolaren Salz-Sucrose-Mediums (mmol/l: 140 NaCl, 3 KCI, 150 Sucrose, 0,1 Ouabain, 20 Tris-hydroxymethyl-aminomethan) bei pH 7,4 und 37°C inkubiert. Die Erythrocyten wurden danach dreimal mit eiskalter MgCl2-Ouabain-Lösung (mmol/l: 112 MgCl2, 0,1 Ouabain) gewaschen und in 2,0 ml destilliertem Wasser hämolysiert. Der intrazelluläre Natriumgehalt wurde flammenphotometrisch bestimmt.
# Der Na^+-Nettoinflux wurde aus der Differenz zwischen Natrium-Ausgangswerten und dem Natriumgehalt der Erythrocyten nach Inkubation errechnet. Der Amiloridhemmbare Natrium-lnflux ergab sich aus der Differenz des Natriumgehalts der Erythrocyten nach Inkubation mit und ohne Amilorid 3 x 10-4 mol/l. Auf diese Weise wurde auch bei den erfindungsgemäßen Verbindungen verfahren.
# T1 sequence (P23791 whole entry): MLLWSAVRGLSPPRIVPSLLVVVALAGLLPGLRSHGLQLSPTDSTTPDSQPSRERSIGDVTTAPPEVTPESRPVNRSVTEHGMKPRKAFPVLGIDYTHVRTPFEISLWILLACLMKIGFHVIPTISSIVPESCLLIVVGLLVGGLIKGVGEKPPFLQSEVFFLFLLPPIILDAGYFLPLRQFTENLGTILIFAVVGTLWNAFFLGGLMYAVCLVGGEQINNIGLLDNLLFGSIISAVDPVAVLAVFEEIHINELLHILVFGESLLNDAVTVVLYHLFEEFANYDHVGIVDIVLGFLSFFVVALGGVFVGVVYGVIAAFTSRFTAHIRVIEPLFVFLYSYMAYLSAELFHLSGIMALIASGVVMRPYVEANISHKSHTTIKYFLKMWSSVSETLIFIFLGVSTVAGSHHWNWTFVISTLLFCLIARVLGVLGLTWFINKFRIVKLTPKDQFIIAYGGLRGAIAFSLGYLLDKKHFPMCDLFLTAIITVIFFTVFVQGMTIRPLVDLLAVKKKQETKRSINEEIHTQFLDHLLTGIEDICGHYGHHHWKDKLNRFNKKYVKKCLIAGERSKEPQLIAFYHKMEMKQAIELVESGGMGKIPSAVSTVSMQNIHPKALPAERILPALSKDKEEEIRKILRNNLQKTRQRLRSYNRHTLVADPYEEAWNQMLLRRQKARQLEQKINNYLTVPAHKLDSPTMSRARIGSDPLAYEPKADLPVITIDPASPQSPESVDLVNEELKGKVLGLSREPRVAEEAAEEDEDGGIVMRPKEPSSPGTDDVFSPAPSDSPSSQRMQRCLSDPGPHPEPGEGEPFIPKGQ
row,Compound,IC50 [µM]
1,"CS(=O)(=O)c1cc(C(=O)N=C(N)N)ccc1Oc1ccc(C(O)Cn2ccnc2)cc1 (stereo not shown) [Beispiel 32, 4-[4-(2-N-lmidazolyl-1-hydroxyethyl)phenoxy]-3-methylsulfonylbenzoylguanidin]",0.44
2,4-[4-(N-t-Butylimido-N'-t-butyl)sulfamoyl]-3-trifluormethyl-benzoylguanidin [Beispiel 2],0.32
3,"CN(C)CCN(C)S(=O)(=O)c1ccc(Oc2ccc(C(=O)N=C(N)N)cc2C(F)(F)F)cc1 [Beispiel 3, 4-[4-N-(Dimethylaminoethyl)-methylsulfamoyl]phenoxy-3-trifluormethylbenzoylguanidin]",0.05
4,"CN(C)CCS(=O)(=O)c1ccc(Oc2ccc(C(=O)N=C(N)N)cc2S(C)(=O)=O)cc1 [Beispiel 17, 4-[4-(2-Dimethylaminoethylsulfonyl)phenoxy]-3-methylsulfonylbenzoylguanidin]",1
5,"NC(N)=NC(=O)c1ccc(Oc2ccc(S(=O)(=O)NCCN3CCCCC3)cc2)c(C(F)(F)F)c1 [Beispiel 6, 4-[4-(2-Piperidinethylaminosulfonyl)phenoxy]-3-trifluormethylbenzoylguanidin]",0.1
6,"N=S(N)(=O)c1ccc(Oc2ccc(C(=O)N=C(N)N)cc2C(F)(F)F)cc1 (stereo not shown) [Beispiel 9, 4-(4-lmidamidosulfonyl)phenoxy-3-trifluormethyl-benzoylguanidin]",0.1
7,"CN(C)CCc1ccc(Oc2ccc(C(=O)N=C(N)N)cc2C(F)(F)F)cc1 [Beispiel 21, 3-Trifluormethyl-4-[4-(2-dimethylaminoethyl)phenoxy]benzoyl-guanidin]",0.014
8,"CN(C)CCSCc1ccc(Oc2ccc(C(=O)N=C(N)N)cc2S(C)(=O)=O)cc1 [Beispiel 15, 4-[4-(2-Dimethylaminoethyl)thiomethyl-phenoxy]-3-methylsulfonylbenzoyl-guanidin]",0.01
9,"CN(C)CCS(=O)(=O)Cc1ccc(Oc2ccc(C(=O)N=C(N)N)cc2S(C)(=O)=O)cc1 [Beispiel 46, 4-[4-(2-Dimethylaminoethyl)sulfonylmethyl-phenoxy]-3-methylsulfonylbenzoyl-guanidin]",0.09
10,"NC(N)=NC(=O)c1ccc(Oc2ccc(S(=O)(=O)NCCN3CCCC3)cc2)c(C(F)(F)F)c1 [Beispiel 5, 4-[4-(2-Pyrolidinethylaminosulfonyl)phenoxy]-3-trifluormethylbenzoylguanidin]",0.3
11,"CN(C)CCNS(=O)(=O)c1ccc(Oc2ccc(C(=O)N=C(N)N)cc2C(F)(F)F)cc1 [Beispiel 8, 4-[4-(N-Dimethylaminoethyl)sulfamoyl]phenoxy-3-trifluormethylbenzoylguanidin]",0.005
12,"NC(N)=NC(=O)c1ccc(Oc2ccc(S(N)(=O)=O)cc2)c(C(F)(F)F)c1 [Beispiel 1, 4-(4-Aminosulfonyl)phenoxy-3-trifluormethyl-benzoylguanidin]",0.8
13,"CN(C)CCSc1ccc(Oc2ccc(C(=O)N=C(N)N)cc2S(C)(=O)=O)cc1 [Beispiel 16, 4-[4-(2-Dimethylaminoethylthio)phenoxy]-3-methylsulfonylbenzoylguanidin]",0.16
14,"CS(=O)(=O)c1cc(C(=O)N=C(N)N)ccc1Oc1ccc(S(N)(=O)=O)cc1 [Beispiel 33, 3-Methylsulfonyl-4-(4-sulfamoylphenoxy)benzoylguanidin]",0.2
15,"CN(C)CCS(=O)(=O)Cc1ccc(Oc2ccc(C(=O)N=C(N)N)cc2C(F)(F)F)cc1 [Beispiel 47, 4-[4-(2-Dimethylaminoethyl)sulfonylmethyl-phenoxy]-3-trifluormethylbenzoyl-guanidin]",0.07
16,"CN=C(NC)SCC(=O)c1ccc(Oc2ccc(C(=O)N=C(N)N)cc2S(C)(=O)=O)cc1 [Beispiel 28, 4-[4-(N,N'-Dimethyl-S-isothiuronyl-acetyl)phenoxy]-3-methylsulfonylbenzoylguanidin]",0.12
17,"CN(C)CCc1ccc(Oc2ccc(C(=O)N=C(N)N)cc2S(C)(=O)=O)cc1 [Beispiel 14, 3-Methylsulfonyl-[4-(2-dimethylaminoethyl)phenoxy]benzoyl-guanidin]",0.05
18,"CN(C)CCSCc1ccc(Oc2ccc(C(=O)N=C(N)N)cc2C(F)(F)F)cc1 [Beispiel 19, 4-[4-(2-Dimethylaminoethyl)thiomethyl-phenoxy]-3-trifluormethylbenzoylguanidin]",0.008
19,"CN(C)CCSc1ccc(Oc2ccc(C(=O)N=C(N)N)cc2C(F)(F)F)cc1 [Beispiel 20, 4-[4-(2-Dimethylaminoethylthio)phenoxy]-3-trifluormethylbenzoylguanidin]",0.04
20,"CN(C)CCCNS(=O)(=O)c1ccc(Oc2ccc(C(=O)N=C(N)N)cc2C(F)(F)F)cc1 [Beispiel 7, 4-[4-(N-Dimethylamino-n-propyl)sulfamoyl]phenoxy-3-trifluormethylbenzoylguanidin]",0.06
21,"CS(=O)(=O)c1cc(C(=O)N=C(N)N)ccc1Oc1ccc(C(=O)N=C(N)N)cc1 [Beispiel 18, 4-[(4-Guanidinocarbonyl)phenoxy]-3-methylsulfonylbenzoylguanidin]",0.2
22,"CN1CCN(S(=O)(=O)c2ccc(Oc3ccc(C(=O)N=C(N)N)cc3C(F)(F)F)cc2)CC1 [Beispiel 4, 4-[4-(4-Methylpiperazinosulfonyl)phenoxy]-3-trifluormethylbenzoylguanidin]",0.082

# Tested on: Rattenherzen
# Assay: not given
# Details: isolated rat hearts; Eur. Heart J. 9 (suppl.1): 167 (1988); cited from earlier work
row,Compound,künstlich ausgelöstes Kammerflimmern
1,CCN(c1nc(N)c(C(=O)N=C(N)N)nc1Cl)C(C)C [Ethylisopropylamilorid],Noch potenter als Amilorid
2,NC(N)=NC(=O)c1nc(Cl)c(N)nc1N [Amilorid],völlig unterdrückt
